Test results taken from PubChem BioAssay AID2060883 (Molecular Pharmacology Branch, DTP, NCI, 2025).

System: 843782-103-R-J1-PDC complex spheroid viability
Test: Anticancer human tumor 843782-103-R-J1-PDC patient-derived lung adenocarcinoma cell line growth inhibition [RAS]
Settings: for IC50: curve of first compound; for viability, T/C: stronger effect = lower value
Description: RAS pathway inhibitors in Combinations in Complex Spheroids
A high-throughput screen of multi-cell type tumor spheroids was designed to identify active combinations of RAS pathway inhibitors and targeted small molecules. Complex spheroids include a stromal component modeled by human endothelial cells (HUVEC) and fibroblasts modeled by human mesenchymal stem cells (MSCs). The concentration ranges selected for each drug and investigational agent were based upon clinically achievable concentrations if the clinical Cmax of the agent was known.
Compounds. The drugs and investigational agents: abemaciclib (NSC768073), cobimetinib (NSC768068), divarasib (GDC6063, NSC841802), docetaxel (NSC628503), GDC-1971 (RLY-1971, NSC841576), gemcitabine (NSC613327), inavolisib (NSC800729), ipatasertib (NSC767898), KB-0742 (NSC834161), MRTX-1133 (NSC836407), osimertinib (NSC779217), RMC-4630 (NSC839698), RMC-6236 (NSC851965), RMC-6291 (NSC852671), Ro-3306 (NSC812927), sapanisertib (NSC764658), SN-38 (NSC673596), staurosporine (NSC755774), SY5609 (NSC837396), and tovorafenib (DAY101, NSC766906), were obtained from the National Cancer Institute (NCI) Developmental Therapeutics Program Chemical Repository. The FDA-approved anticancer drug set is available from the NCI Developmental Therapeutics Program. […] The stock solutions were prepared in dimethyl sulfoxide (DMSO, Sigma-Aldrich, St. Louis, MO, cat. D2650) at 800-fold the tested concentration and stored at -70 degrees C prior to their use. All drugs and investigational agents were tested over a range starting from a high concentration at or near the clinical Cmax and decreasing in half-log increments. If the clinical Cmax for an agent had not been determined, the highest concentration tested was 10 microM.
Cell Culture. All cells were maintained in an incubator at 37 degrees C and 5% CO2 with 95% humidity. The PDC lines were cultured according to standard operating procedures established by the NCI PDMR. All PDCs were thawed and cultured in Matrigel-coated flasks prepared with a working solution of 1X Ham's F-12 nutrient mix, without supplementation (Invitrogen, Waltham, MA, cat. 11765054), 100 U/mL penicillin-streptomycin (Invitrogen, cat. 15140122), and 2.5% Matrigel (Corning Inc., Corning, NY, cat. 354248) for the first three passages. The 362531-283-R-J2-PDC and 782815-120-R-J1-PDC lines were cultured in 6C/Colon 1B media, which includes advanced DMEM/F-12 (Thermo Fisher Scientific, cat. 12634028), 10 mM HEPES (Thermo Fisher Scientific, cat. 15630080), 1X GlutaMAX supplement (Thermo Fisher Scientific, cat. 35050061), 0.1 mg/mL primocin (InvivoGen, San Diego, CA, cat. ant-pm-2), 10% defined fetal bovine serum, heat inactivated (HyClone Laboratories Inc., Logan, UT, cat. SH30070.03HI), 50% L-WRN conditioned media (ATCC, cat. CRL-3276), 1.25 mM N-Acetyl-L-cysteine (Sigma-Aldrich, cat. A9165), 10 mM nicotinamide (Sigma-Aldrich, cat. N0636), 1X B-27 supplement (Thermo Fisher Scientific, cat. 17504044), 1X N-2 supplement (Thermo Fisher Scientific, cat. 17502048), 50 ng/mL human EGF (Thermo Fisher Scientific, cat. PHG0311), and 10 microM Y-27632 dihydrochloride (Tocris Bioscience, cat. 1254). The K12877-001-R-J1-PDC line was cultured in 6I media, which includes all 6C/Colon 1B media plus 10 ng/mL human FGF-10 (PeproTech, cat. 100-26), 1 ng/mL human FGF-2 (PeproTech, cat. 100-18B), 1 µM prostaglandin E2 (Tocris Bioscience, cat. 2296), […] hydrocortisone (Sigma-Aldrich, cat. H4001), and […] bovine insulin (Sigma-Aldrich, cat. I6634). The K86415-001-R-J1-PDC line was cultured in 6D media, which includes all 6C/Colon 1B media components minus the L-WRN conditioned media. The 485176-168-R4-J1-PDC was cultured in PANC media, which includes all 6C/Colon 1B media plus 100 ng/mL human FGF-10 (PeproTech, cat. 100-26), 500 nM SB-431542 (Selleckchem, cat. S1067), and 10 nM gastrin (Tocris Bioscience, cat. 3006). […]
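Note: viability read after seven days of compound exposure.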

What does the source list for `CCC(CC)c1cc(NC2CCC(N)C2)n2nccc2n1` (configuration not stated) + C=CC(=O)N1CCN(c2nc(OCC3CCCN3C)nc3c(F)c(-c4nc(N)cc(C)c4C(F)(F)F)c(Cl)cc23)C(C)C1?
IC50 (second compound 0.00316 µM): 1420 nM; IC50 (second compound 0.01 µM): 1500 nM; IC50 (second compound 0.0316 µM): 1420 nM; IC50 (second compound 0.1 µM): 1480 nM; IC50 (second compound 0.316 µM): 1420 nM; IC50 (second compound 1 µM): 1630 nM; viability, T/C (second compound 0.00316 µM, first compound 0.0316 µM): 99.4%; viability, T/C (second compound 0.00316 µM, first compound 0.1 µM): 87.9%; viability, T/C (second compound 0.00316 µM, first compound 0.316 µM): 91.9%; viability, T/C (second compound 0.00316 µM, first compound 1 µM): 71.3%; viability, T/C (second compound 0.00316 µM, first compound 3.16 µM): 1.31%; viability, T/C (second compound 0.00316 µM, first compound 10 µM): 0.48%; viability, T/C (second compound 0.01 µM, first compound 0.0316 µM): 94.5%; viability, T/C (second compound 0.01 µM, first compound 0.1 µM): 88.3%; viability, T/C (second compound 0.01 µM, first compound 0.316 µM): 84.7%; viability, T/C (second compound 0.01 µM, first compound 1 µM): 76.2%; viability, T/C (second compound 0.01 µM, first compound 3.16 µM): 1.43%; viability, T/C (second compound 0.01 µM, first compound 10 µM): 0.54%; viability, T/C (second compound 0.0316 µM, first compound 0.0316 µM): 91.6%; viability, T/C (second compound 0.0316 µM, first compound 0.1 µM): 88.5%; viability, T/C (second compound 0.0316 µM, first compound 0.316 µM): 83.3%; viability, T/C (second compound 0.0316 µM, first compound 1 µM): 71.2%; viability, T/C (second compound 0.0316 µM, first compound 3.16 µM): 1.09%; viability, T/C (second compound 0.0316 µM, first compound 10 µM): 0.49%; viability, T/C (second compound 0.1 µM, first compound 0.0316 µM): 79.9%; viability, T/C (second compound 0.1 µM, first compound 0.1 µM): 87.6%; viability, T/C (second compound 0.1 µM, first compound 0.316 µM): 90.6%; viability, T/C (second compound 0.1 µM, first compound 1 µM): 75.3%; viability, T/C (second compound 0.1 µM, first compound 3.16 µM): 1.17%; viability, T/C (second compound 0.1 µM, first compound 10 µM): 0.4%; viability, T/C (second compound 0.316 µM, first compound 0.0316 µM): 91.7%; viability, T/C (second compound 0.316 µM, first compound 0.1 µM): 84.8%; viability, T/C (second compound 0.316 µM, first compound 0.316 µM): 88.6%; viability, T/C (second compound 0.316 µM, first compound 1 µM): 71%; viability, T/C (second compound 0.316 µM, first compound 3.16 µM): 1.54%; viability, T/C (second compound 0.316 µM, first compound 10 µM): 0.46%; viability, T/C (second compound 1 µM, first compound 0.0316 µM): 88.4%; viability, T/C (second compound 1 µM, first compound 0.1 µM): 87.1%; viability, T/C (second compound 1 µM, first compound 0.316 µM): 88.7%; viability, T/C (second compound 1 µM, first compound 1 µM): 86.1%; viability, T/C (second compound 1 µM, first compound 3.16 µM): 0.8%; viability, T/C (second compound 1 µM, first compound 10 µM): 0.59%
